In article PMC4190524, “The Flux of Select NSAIDs through Silicone Membranes from Mineral Oil” (Pharmaceutics, 2014):
Read-outs that look alike come from different tables or passages of the source.

Experiments:
[1] = pH 7.1
[2] = Maximum flux through silicone membranes from mineral oil (Franz diffusion cells)
[3] = parameters: method as in Wenkers and Lippold 1999 [6]; conditions: log maximum flux through human skin in vivo from mineral oil; ref Wenkers and Lippold 1999 [6]; cited from earlier work
[4] = Calculated solubilities in octanol, pH 7.4 buffer and acidic water; assay type: physicochemical; conditions: data from Wenkers and Lippold 1999; for log SOCT: solubility in octanol, calculated from log KOCT:MO and log SMO; for log S7.4: solubility in pH 7.4 phosphate buffer, calculated from log SOCT − log KOCT:7.4; for log S1.0: solubility in acidic water (pH 1.0), calculated from log SMO − log KMO:1.0
Description: Experimental solubility in mineral oil from Wenkers and Lippold was converted to units of mM from mg/dL. The values of log S7.4 were calculated from log SOCT − log KOCT:7.4, the values of log SOCT were calculated from log KOCT:MO + log SMO, and the values of log S1.0 were calculated from log SMO − log KMO:1.0.

[5] = Calculated log partition coefficients; assay type: physicochemical; conditions: data from Wenkers and Lippold 1999; for log KMO:1.0: mineral oil:acidic water (pH 1.0) partition coefficient, calculated from log KOCT:1.0 − log KOCT:MO; for log KOCT:MO: octanol:mineral oil partition coefficient, calculated from log KOCT:1.0 − log KMO:1.0
[6] = Stability in pH 7.1 phosphate buffer (receptor phase); assay type: physicochemical; conditions: measured after 24 h as salicylic acid
Description: Molar extinction coefficients for the compounds in pH 7.1 phosphate buffer, the receptor phase, were determined experimentally. Each compound was initially dissolved in a small volume of acetonitrile (except Diflunisal, which was dissolved in ethanol). These solutions were diluted further with the buffer solution to concentrations that would produce accurate UV absorptions. A plot of absorbance versus concentration produced the slope in units of M^−1. There was only one instance of a major variation in this procedure. […] Thus, the molar extinction coefficient and the concentrations measured after 24 h were that of salicylic acid.

[7] = log maximum flux through silicone membrane from mineral oil suspension, 32 °C, pH 7.1 phosphate buffer receptor phase, measured directly

SMILES: COc1ccc2cc([C@H](C)C(=O)O)ccc2c1 [Naproxen]
- log JMPMO [1]: −1.46 µmol cm^−2 h^−1

SMILES: CC(=O)Oc1ccccc1C(=O)O [Aspirin]
- log JMPMO [2, 7]: −1.18 µmol cm^−2 h^−1
- log JMHMO [3]: −1.72 µmol cm^−2 h^−1
- log SOCT [4]: 3.14 mM
- log S7.4 [4]: 5.18 mM
- log KMO:1.0 [5]: −2.02
- log KOCT:MO [5]: 3.96
- stability in phosphate buffer [6]: readily hydrolyzed to salicylic acid and acetic acid

SMILES: CN1C(C(=O)Nc2ccccn2)=C(O)c2ccccc2S1(=O)=O [Piroxicam]
- log JMPMO [2, 7]: −2.08 µmol cm^−2 h^−1
- log JMHMO [3]: −2.40 µmol cm^−2 h^−1
- log S1.0 [4]: −0.94 mM
- log SOCT [4]: 0.75 mM
- log S7.4 [4]: 0.95 mM
- log KMO:1.0 [5]: 0.20
- log KOCT:MO [5]: 1.49

SMILES: CC(C(=O)O)c1cccc(C(=O)c2ccccc2)c1 (centres unmarked) [Ketoprofen]
- log JMPMO [2, 7]: −1.18 µmol cm^−2 h^−1

SMILES: O=C(O)Cc1ccccc1Nc1c(Cl)cccc1Cl [Diclofenac]
- log JMPMO [2, 7]: −1.91 µmol cm^−2 h^−1
- log JMHMO [3]: −2.89 µmol cm^−2 h^−1
- log S1.0 [4]: −2.43 mM
- log SOCT [4]: 1.89 mM
- log S7.4 [4]: −0.09 mM
- log KMO:1.0 [5]: 1.41
- log KOCT:MO [5]: 2.91

SMILES: O=C(O)c1cc(-c2ccc(F)cc2F)ccc1O [Diflunisal]
- log JMPMO [2, 7]: −1.69 µmol cm^−2 h^−1
- log JMHMO [3]: −2.44 µmol cm^−2 h^−1
- log S1.0 [4]: −2.05 mM
- log SOCT [4]: 2.19 mM
- log S7.4 [4]: 1.61 mM
- log KMO:1.0 [5]: 0.88
- log KOCT:MO [5]: 3.36

SMILES: COc1ccc2cc(CCC(C)=O)ccc2c1 [Nabumetone]
- log JMPMO ([2]; first procedure, 3 h collection intervals): −1.55
- log JMPMO [2, 7]: −1.53 µmol cm^−2 h^−1
- log JMPMO ([2]; repeat diffusion cell experiment with 2 h collection intervals, receptor phases ≤20% saturation): −1.53
- log JMHMO [3]: −1.10 µmol cm^−2 h^−1
- log S1.0 [4]: −1.53 mM
- log SOCT [4]: 1.76 mM
- log S7.4 [4]: −1.12 mM
- log KMO:1.0 [5]: 2.72
- log KOCT:MO [5]: 0.57

SMILES: O=C(O)c1ccccc1Nc1cccc(C(F)(F)F)c1 [Flufenamic Acid]
- log JMPMO [2, 7]: −0.60 µmol cm^−2 h^−1
- log JMHMO [3]: −1.86 µmol cm^−2 h^−1
- log S1.0 [4]: −2.21 mM
- log SOCT [4]: 2.46 mM
- log S7.4 [4]: 0.31 mM
- log KMO:1.0 [5]: 2.74
- log KOCT:MO [5]: 1.93

SMILES: CC(C)Cc1ccc(C(C)C(=O)O)cc1 (centres unmarked) [Ibuprofen]
- log JMPMO [2, 7]: 0.34 µmol cm^−2 h^−1
- log JMHMO [3]: −0.25 µmol cm^−2 h^−1
- log S1.0 [4]: −0.97 mM
- log SOCT [4]: 3.24 mM
- log S7.4 [4]: 2.02 mM
- log KMO:1.0 [5]: 3.06
- log KOCT:MO [5]: 1.15
